{
  "source": "patent US20110224221A1",
  "about": "“HEMATOPOIETIC PROTECTION AGAINST IONIZING RADIATION USING SELECTIVE CYCLIN-DEPENDENT KINASE 4/6 INHIBITORS” (priority 2008, published 2011)",
  "key": {"[1]": {"test_system": "mice exposed to total body irradiation", "experiment": "Survival after total body irradiation (TBI)", "format": "in vivo", "excerpt": "(§1) For TBI experiments, mice were irradiated using a ^137Cs source (AECL Gammacell 40 Irradiator, Atomic Energy of Canada Ltd, Mississauga, Ontario, Canada). Delivered doses were at or near the empirically determined LD90 of 7.5 Gy, consistent with prior studies. See Na Nakorn et al., J. Clin. Invest., 109, 1579-1585 (2002); Herodin et al., Blood, 101, 2609-2616 (2003); Uckun et al., Blood, 75, 638-645 (1990); and Wang et al., Proc. Natl. Acad. Sci., USA, 94, 14590-14595 (1997). Peripheral blood was collected using a tail vein nick for complete blood cells (CBCs) and analyzed with a HemaTrue analyzer (Heska Co., Loveland, Colo., United States of America).\nAdult female C57Bl/6 mice were exposed to 6.5, 7.5, or 8.5 Gy with or without PD0332991 treatment and followed for 40 days post-TBI. The LD90 for IR was determined to be about 7.5 Gy. […] See FIGS. 14A for C3H and FIG. 2E for FVB/n. […] It appears that PQ resulting from transient CDK4/6 inhibition around the time of TBI enhances radioresistance in vivo.\nMore particularly, animals were given a CDK4/6 inhibitor at different times relative to TBI at the LD90. As radioprotection was observed when animals were treated with two doses pre- and one dose post-TBI (see FIGS. 13A-13B), further studies were undertaken to determine which of these doses was most important for radioprotection. Without being bound to any one theory, it appeared that most of the benefit of the treatment schedule was associated PD 0332991 treatment immediately prior to or contemporaneous with TBI. […] Although there are a few known compounds that protect from radiotoxicity when administered prior to IR (i.e. “radioprotectants”) (see Burdelya et al., Science, 320, 226-230 (2008); and Weiss and Landauer, Int J. Radiat. Biol., 85, 539-573 (2009)), previous to the presently disclosed subject matter, no known hematologic “radiomitigants” (i.e., compounds that reduce hematotoxicity when administered many hours after an exposure to TBI) are believed to have been reported."}, "[2]": {"test_system": "TyrRAS+Ink4a/Arf−/− melanoma", "details": "mouse, in vivo; cited from earlier work"}, "[3]": {"test_system": "bone marrow mononuclear cells (BM-MNCs)", "experiment": "Cobblestone area-forming cell (CAFC) assay", "format": "cell-based, mice", "details": "daily oral gavage for 2 days prior to bone marrow harvest", "procedure": "CAFCs are per 1×10^5 bone marrow mononuclear cells (BM-MNCs). Error bars are +/− the standard error of the mean of pooled samples measured in duplicate.\nCobblestone Area-forming Cell (CAFC) Assay: The CAFC assay was performed as described previously. See Meng et al., Cancer Res., 63, 5414-5419 (2003). Briefly, bone marrow was harvested from femurs and tibias of mice and centrifuged to purify BM-MNCs. The frequencies of CAFC were determined at weekly intervals (on day 7, 14, and 35). Wells were scored positive if at least one phase-dark hematopoietic clone (containing 5 or more cells) was seen. The frequency of CAFC was then calculated by using Poisson statistics as described."}, "[4]": {"test_system": "peripheral blood lineages", "parameters": "species or system mice", "details": "mouse, in vivo", "excerpt": "Data are shown as a moving average with each point representing the mean of three consecutive […]. Error bars are +/− of the standard error of the mean for all data points associated with the moving average. The solid black bar in the lower left of each graph indicates the duration of the PD0332991 treatment. Data from PD0332991 treated mice is shown by the unshaded squares. For comparison, data from mice that had not been treated with PD0332991 is shown in shaded circles.\nas §1\nThese observations are consistent with the kinetics and degree of myelosuppression seen when tumor bearing mice (see Ramsey et al., Cancer Res., 67, 4732-4741 (2007); and Fry et al., Mol. Cancer Ther., 3, 1427-1438 (2004)) and human patients with malignancies (see O'Dwyer et al., “A Phase I does escalation trial of a daily oral CDK4/6 Inhibitor PD 0332991” in American Society of Clinical Oncology (ASCO, Chicago, Ill., 2007)) are serially treated with PD0332991. The noted decreases might be expected to enhance the adverse effects of radiation therapy. However, unexpectedly as shown herein, hematopoietic cells are protected from adverse effects."}, "[5]": {"test_system": "mice exposed to total body irradiation", "excerpt": "FIG. 16 is set of bar graphs showing the hematocrit or cell counts of different lineages of blood cells from mice 143-242 days following exposure to a lethal dose (7.5 gray (Gy)) or sub-lethal dose (6.5 Gy) of total body irradiation (TBI). Data for mice treated with 6-acetyl-8-cyclopentyl-5-methyl-2-(5-piperazin-1-yl-pyridin-2-ylamino)-8H-pyrido-[2,3-d]pyrimidin-7-one (PD 0332991) prior to 6.5 Gy TBI is shown in the solid bars and data for mice treated with PD 0332991 prior to 7.5 Gy TBI is shown in the stippled bars. […] Myeloid cell count is the sum of granulocytes and monocytes."}, "[6]": {"test_system": "RB-null melanoma cell line A2058", "experiment": "Clonogenic assay after IR, A2058", "format": "cell-based, human", "details": "100 nM, IR 0-9 Gy", "procedure": "Data plotted is the area/cell ratio of PD0332991 treated cells to dimethyl sulfoxide (DMSO) treated cells. Error bars show standard error of the mean.\nClonogenic Assay: The clonogenic assay was performed as previously described (see Franken et al., Nature protocols, 1, 2315-1319 (2006)) with cells plated in a six-well plate at least 6 hours prior to treatment with CDK inhibitor for 24 hours, […] Cells were grown for 16 days, washed, fixed, and stained with crystal violet. Plates were then imaged using an Odyssey infrared scanner (Li-Cor Biosciences, Lincoln, Nebr., United States of America) and quantified using the accompanying software."}, "[7]": {"experiment": "Serum/plasma levels after oral gavage", "format": "in vivo, mice", "procedure": "Mass Spectrometry: Mice were dosed as described and tail vein nick performed to acquire 30 μL periphal blood. Blood was centrifuged to acquire 10 μL plasma, which was mixed with 100 μL ice cold methanol, centrifuged, and mixed with 10 μL of an internal control. Plasma levels were quantified based on standard curves derived in triplicate from known concentrations of wild type C57Bl/6 female mouse plasma unexposed to the measured drug. Quantification was performed using HPLC separation with triple quadrupole mass spectrometry normalizing results to measurement of the internal standard."}, "[8]": {"details": "8.5 Gy TBI, single dose four hours prior to IR"}},
  "note": "“Also recorded” adds a separate entry of the source.",
  "data": [
    {"smiles": "CC(=O)c1c(C)c2cnc(Nc3ccc(N4CCNCC4)cn3)nc2n(C2CCCC2)c1=O", "note": "[PD0332991, 6-acetyl-8-cyclopentyl-5-methyl-2-(5-piperazin-1-yl-pyridin-2-ylamino)-8H-pyrido-[2,3-d]-pyrimidin-7-one]", "values": [
      {"measurement": "survival", "setting": "[1]; 6.5 Gy", "value": "All mice survived"},
      {"measurement": "survival", "setting": "[1]; 7.5 Gy, C57Bl/6, followed 40 days post-TBI", "value": "all treated mice survived"},
      {"measurement": "survival", "setting": "[1]; 7.5 Gy, multiple doses around IR, within 40 days", "value": "~100", "unit": "%"},
      {"measurement": "survival", "setting": "[1]; 7.5 Gy, single dose 4 hours prior to IR", "value": "Enhanced survival; also recorded: survival similar to animals treated on the multi-dose"},
      {"measurement": "survival", "setting": "[1]; 7.5 Gy, single dose 20 hours after TBI", "value": "significantly enhanced"},
      {"measurement": "survival", "setting": "[1]; 7.5 Gy, single time 0 dose", "value": "survival similar to animals treated on the multi-dose"},
      {"measurement": "median survival", "setting": "[1]; [8]", "value": 19, "unit": "days"},
      {"measurement": "term survival", "setting": "[1]; [8]", "value": 13, "unit": "%"},
      {"measurement": "term survival", "setting": "[1]; 8.5 Gy TBI, single dose four hours prior to IR, listed as PD 0332991", "value": "about 30%"},
      {"measurement": "tolerability of dose and schedule", "setting": "[2]", "value": "well tolerated without evident toxicity"},
      {"measurement": "in vivo HSPC number (CAFC)", "setting": "[3]", "value": "did not decrease in vivo HSPC number"},
      {"measurement": "time to begin of improvement upon cessation", "setting": "[4]", "value": "≤ 4", "unit": "days"},
      {"measurement": "treatment time after which decrease became apparent", "setting": "[4]", "value": 8, "unit": "days"},
      {"measurement": "erythroid, platelet and myeloid lineages", "setting": "[4]; po, 150 mg/kg", "value": "modest decrease"},
      {"measurement": "deaths", "setting": "[5]; 6.5 Gy TBI, followed 210-274 days post-TBI", "value": "no deaths"},
      {"measurement": "deaths among 29 mice surviving acute toxicity", "setting": "[5]; 7.5 Gy TBI, remaining mice disease free 101-251 days post-TBI", "value": "one death of unknown cause at day 99"},
      {"measurement": "blood counts on long-term surviving animals vs unirradiated", "setting": "[5]; long-term after TBI", "value": "comparable"},
      {"measurement": "myeloproliferative disorder or myelodysplasia", "setting": "[5]; mouse, in vivo", "value": "No evidence"},
      {"measurement": "clonogenic cell survival after IR (area/cell ratio relative to DMSO)", "setting": "[6]", "value": "not in CDK4/6-independent cells"},
      {"measurement": "persistence of therapeutic serum levels", "setting": "[7]", "value": "10 to 20", "unit": "h"},
      {"measurement": "time until therapeutic serum levels are achieved", "setting": "[7]", "value": "> 30", "unit": "min"}
    ]}
  ]
}
